Source: US10555987B2, “GHRH agonists for the treatment of ischemic disorders” (UNIVERSITY OF MIAMI, priority 2012, dated 2020)
Non-standard residues stand in square brackets, D forms with d. Residues, ends and D or L forms follow the SMILES beside them. ξ: configuration not given here. *: point of attachment. Desaminotyrosyl = O=C(CCc1ccc(O)cc1)*; NMeY = CN[C@@H](Cc1ccc(O)cc1)C(=O)O; Nle = CCCC[C@H](N)C(=O)O; Orn = NCCC[C@H](N)C(=O)O; Abu = CC[C@H](N)C(=O)O; Ava = NCCCCC(=O)O; GABA = NCCCC(=O)O; ξA = CC(N)C(=O)O

Columns and labels:
[1] = target: T1, GHRH receptor (Homo sapiens, UniProt Q02643); assay: Receptor binding in vitro, 125I-labeled [His1,Nle27]-hGHRH(1-32)NH2, membrane receptors of human anterior pituitary cells (Table 14)
T1 sequence (Q02643 23-423): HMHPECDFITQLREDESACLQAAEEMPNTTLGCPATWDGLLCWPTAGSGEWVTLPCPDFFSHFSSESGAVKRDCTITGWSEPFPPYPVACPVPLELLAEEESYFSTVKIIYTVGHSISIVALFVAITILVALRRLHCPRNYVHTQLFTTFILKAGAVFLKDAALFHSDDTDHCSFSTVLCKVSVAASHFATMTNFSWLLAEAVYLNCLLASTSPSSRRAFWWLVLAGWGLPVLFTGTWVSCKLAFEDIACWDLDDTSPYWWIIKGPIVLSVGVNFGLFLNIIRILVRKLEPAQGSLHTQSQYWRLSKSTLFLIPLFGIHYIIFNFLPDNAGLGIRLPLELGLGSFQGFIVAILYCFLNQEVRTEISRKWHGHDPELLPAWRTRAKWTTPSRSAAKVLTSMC

[2] = target: T1, GHRH receptor; assay: GHRH receptor binding, competition with 125I-labeled JV-1-42, human pituitary membrane homogenates (Table 7); parameters: Normal human pituitaries were purchased from the National Hormone and Peptide Program; tissue National Hormone and Peptide Program (A.F. Parlow, Harbor-UCLA Medical Center, Torrance, Calif.); host or cells: normal human pituitary, membrane fraction; details: JI-38 = 1, Table 7
From the text: Normal human pituitaries were purchased from the National Hormone and Peptide Program (A.F. Parlow, Los Angeles, County Harbor-UCLA Medical Center, Torrance, Calif.).

[3] = test system: GH release; assay: GH releasing potency in vivo, subcutaneous administration (Example 14, Table 12); parameters: species or system rat; details: s.c.
Method: Male Sprague-Dawley rats, weighing 200-250 g, were purchased from Charles River Laboratory (Wilmington, Mass.) and used for experiments. All animal procedures were approved by the Veterans Affairs Animal Care and Use Committee and were conducted in accordance with additional institutional guidelines as well. Briefly, groups of 5-6 animals were used in each experiment. The rats were anesthetized with 50 mg/kg of sodium pentobarbital (Nembutal, Lundbeck Inc., Deerfield, Ill.). Twenty min after inducing anesthesia, GHRH(1-29)NH2, JI-38, or new analogs were injected into the animals intravenously (i.v.) or subcutaneously (s.c.). The peptides were dissolved in 0.01 M acetic acid to get 1 μg/μl stock solution, and then diluted with 5% mannitol. Control rats received 5% mannitol only. Blood samples were collected from the jugular vein at selected times and were used for serum preparation. Concentrations of GH in rat sera were determined by ELISA. The relative potencies of tested peptides were calculated using GHRH(1-29)NH2 and JI-38 for comparison, whose potency was defined as 1. The equivalent dosage of GHRH(1-29)NH2 to reach the same level of serum growth hormone release after injection of the specific tested peptide was determined from a GHRH(1-29)NH2 standard curve using Origin 6.0 software. […] Serum GH was determined using the rat Growth Hormone ELISA kit (ALPCO Diagnostics, Mill Valley, Calif.) according to the manufacturer's instruction. Absorbance at 405 nm was measured by a Victor 3 Multi-label Counter (Perkin-Elmer, Waltham, Md.).

[4] = test system: GH release; assay: In vivo endocrine activity, GH release after subcutaneous administration (Table 9); details: rat, subcutaneous (s.c.) injection
Method: Subcutaneous Administration. Adult male rats were used and anesthetized with pentobarbital (6 mg/100 g, b.w.), by i.p. injection. […] Blood samples were taken from the jugular vein 5, 15 and/or 30 minutes after the injection. The blood samples were centrifuged, plasma was removed and the GH level was measured byELISA. The results are summarized in terms of potency in Table 9.

SMILES | Relative affinity (Binding potency) compared to JI-38 ([1]; JI-38 = 1) | Relative affinity (Binding potency) compared to hGHRH(1-29) ([1]; hGHRH(1-29)NH2 = 1) | Relative affinity (Binding potency) vs JI-38 [2] | Serum GH level at selected time after injection (ng/ml), 0 min ([3]; male rats, dose 3 μg/kg, 0 min, mean ± SEM) [ng/mL] | Serum GH level at selected time after injection (ng/ml), 15 min ([3]; male rats, dose 3 μg/kg, 15 min, mean ± SEM) [ng/mL] | Serum GH level at selected time after injection (ng/ml), 30 min ([3]; male rats, dose 3 μg/kg, 30 min, mean ± SEM) [ng/mL] | Relative potency compared to GHRH(1-29), 15 min ([3]; 15 min) | Relative potency compared to JI-38, 15 min ([3]; 15 min) | Relative potency compared to GHRH(1-29), 30 min ([3]; 30 min) | Relative potency compared to JI-38, 30 min ([3]; 30 min) | GH releasing potency relative to JI-38 (=1) ([4]; 15 min after) | GH releasing potency relative to JI-38 (=1) ([4]; 30 min after) | GH releasing potency relative to JI-38 (=1) ([4]; 5 min after)
CCCC[C@H](NC(=O)[C@@H](NC(=O)[C@H](CC(=O)O)NC(=O)[C@H](CCC(N)=O)NC(=O)[C@H](CC(C)C)NC(=O)[C@H](CC(C)C)NC(=O)[C@H](CCCN)NC(=O)[C@H](CCCNC(=N)N)NC(=O)[C@H](C)NC(=O)[C@H](CO)NC(=O)[C@H](CC(C)C)NC(=O)[C@H](CCC(N)=O)NC(=O)[C@H](CC)NC(=O)[C@H](CC(C)C)NC(=O)[C@@H](NC(=O)[C@H](CCCN)NC(=O)[C@H](CCCNC(=N)N)NC(=O)[C@H](Cc1ccc(O)cc1)NC(=O)[C@H](CO)NC(=O)[C@H](CC(N)=O)NC(=O)[C@@H](NC(=O)[C@H](Cc1ccccc1)NC(=O)[C@@H](NC(=O)[C@H](C)NC(=O)[C@H](CC(=O)O)NC(=O)[C@H](C)NC(=O)[C@H](Cc1ccc(O)cc1)NC)[C@@H](C)CC)[C@@H](C)O)C(C)C)[C@@H](C)CC)C(=O)N[C@@H](CO)C(=O)N[C@@H](CCCNC(=N)N)C(=O)NCCCC(=O)NC [Peptide P-27415, [N—Me-Tyr^1, Orn^12, Abu^15, Orn^21, Nle^27, Gab^30]hGHRH(1-30)NH—CH3] (H-[NMeY]ADAIFTNSYR[Orn]VL[Abu]QLSAR[Orn]LLQDI[Nle]SR[GABA]-NHMe) | – | – | 1.44 | – | – | – | – | – | – | – | 0.45 | 0.41 | –
CCCC[C@H](NC(=O)[C@@H](NC(=O)[C@H](CC(=O)O)NC(=O)[C@H](CCC(N)=O)NC(=O)[C@H](CC(C)C)NC(=O)[C@H](CC(C)C)NC(=O)[C@H](CCCN)NC(=O)[C@H](CCCNC(=N)N)NC(=O)[C@H](C)NC(=O)[C@H](CO)NC(=O)[C@H](CC(C)C)NC(=O)[C@H](CCC(N)=O)NC(=O)[C@H](CC)NC(=O)[C@H](CC(C)C)NC(=O)[C@@H](NC(=O)[C@H](CCCN)NC(=O)[C@H](CCCNC(=N)N)NC(=O)[C@H](Cc1ccc(O)cc1)NC(=O)[C@H](CO)NC(=O)[C@H](CC(N)=O)NC(=O)[C@@H](NC(=O)[C@H](Cc1ccccc1)NC(=O)[C@@H](NC(=O)[C@H](C)NC(=O)[C@H](CC(=O)O)NC(=O)[C@H](CC)NC(=O)[C@H](Cc1ccc(O)cc1)NC)[C@@H](C)CC)[C@@H](C)O)C(C)C)[C@@H](C)CC)C(=O)N[C@@H](CO)C(=O)N[C@@H](CCCNC(=N)N)C(=O)NCCCC(N)=O [Peptide P-25503, [N—Me-Tyr^1, Abu^2, Orn^12, Abu^15, Orn^21, Nle^27, Gab^30]hGHRH(1-30)NH2] (H-[NMeY][Abu]DAIFTNSYR[Orn]VL[Abu]QLSAR[Orn]LLQDI[Nle]SR[GABA]-NH2) | – | – | 3.67 | – | – | – | – | – | – | – | 0.64 | 0.63 | 0.55

Second part, led by results:

Relative affinity (Binding potency) compared to JI-38 ([1]; JI-38 = 1) | Relative affinity (Binding potency) compared to hGHRH(1-29) ([1]; hGHRH(1-29)NH2 = 1) | Relative affinity (Binding potency) vs JI-38 [2] | SMILES | Serum GH level at selected time after injection (ng/ml), 0 min ([3]; male rats, dose 3 μg/kg, 0 min, mean ± SEM) [ng/mL] | Serum GH level at selected time after injection (ng/ml), 15 min ([3]; male rats, dose 3 μg/kg, 15 min, mean ± SEM) [ng/mL] | Serum GH level at selected time after injection (ng/ml), 30 min ([3]; male rats, dose 3 μg/kg, 30 min, mean ± SEM) [ng/mL] | Relative potency compared to GHRH(1-29), 15 min ([3]; 15 min) | Relative potency compared to JI-38, 15 min ([3]; 15 min) | Relative potency compared to GHRH(1-29), 30 min ([3]; 30 min) | Relative potency compared to JI-38, 30 min ([3]; 30 min) | GH releasing potency relative to JI-38 (=1) ([4]; 15 min after) | GH releasing potency relative to JI-38 (=1) ([4]; 30 min after) | GH releasing potency relative to JI-38 (=1) ([4]; 5 min after)
0.54 | 1.52 | 1.45 | CCCC[C@H](NC(=O)[C@@H](NC(=O)[C@H](CC(=O)O)NC(=O)[C@H](CCC(N)=O)NC(=O)[C@H](CC(C)C)NC(=O)[C@H](CC(C)C)NC(=O)[C@H](CCCN)NC(=O)[C@H](CCCNC(=N)N)NC(=O)[C@H](C)NC(=O)[C@H](CO)NC(=O)[C@H](CC(C)C)NC(=O)[C@H](CCC(N)=O)NC(=O)[C@H](CC)NC(=O)[C@H](CC(C)C)NC(=O)[C@@H](NC(=O)[C@H](CCCN)NC(=O)[C@H](CCCNC(=N)N)NC(=O)[C@H](Cc1ccc(O)cc1)NC(=O)[C@H](CO)NC(=O)[C@H](CCC(N)=O)NC(=O)[C@@H](NC(=O)[C@H](Cc1ccccc1)NC(=O)[C@@H](NC(=O)[C@H](C)NC(=O)[C@H](CC(=O)O)NC(=O)[C@H](C)NC(=O)CCc1ccc(O)cc1)[C@@H](C)CC)[C@@H](C)O)C(C)C)[C@@H](C)CC)C(=O)N[C@@H](CC(=O)O)C(=O)N[C@@H](CCCNC(=N)N)C(=O)NC [Peptide P-27407, [Dat^1, Gln^8, Orn^12, Abu^15, Orn^21, Nle^27, Asp^28]hGHRH(1-29)NH—CH3] (Desaminotyrosyl-ADAIFTQSYR[Orn]VL[Abu]QLSAR[Orn]LLQDI[Nle]DR-NHMe) | 36.7 ± 10.2 | 248.0 ± 40.5 | 135.2 ± 10.8 | 69.6 | 1.10 | 122 | 1.09 | – | – | –
– | – | 1.14 | CCCC[C@H](NC(=O)[C@@H](NC(=O)[C@H](CC(=O)O)NC(=O)[C@H](CCC(N)=O)NC(=O)[C@H](CC(C)C)NC(=O)[C@H](CC(C)C)NC(=O)[C@H](CCCN)NC(=O)[C@H](CCCNC(=N)N)NC(=O)[C@H](C)NC(=O)[C@H](CO)NC(=O)[C@H](CC(C)C)NC(=O)[C@H](CCC(N)=O)NC(=O)[C@H](CC)NC(=O)[C@H](CC(C)C)NC(=O)[C@@H](NC(=O)[C@H](CCCN)NC(=O)[C@H](CCCNC(=N)N)NC(=O)[C@H](Cc1ccc(O)cc1)NC(=O)[C@H](CO)NC(=O)[C@H](CCC(N)=O)NC(=O)[C@@H](NC(=O)[C@H](Cc1ccccc1)NC(=O)[C@@H](NC(=O)[C@H](C)NC(=O)[C@H](CC(=O)O)NC(=O)C(C)NC(=O)[C@H](Cc1ccc(O)cc1)NC)[C@@H](C)CC)[C@@H](C)O)C(C)C)[C@@H](C)CC)C(=O)N[C@@H](CC(=O)O)C(=O)N[C@@H](CCCNC(=N)N)C(=O)NCCCCC(N)=O (stereo partly drawn) [Peptide P-22325, [N—Me-Tyr^1, Gln^8, Orn^12, Abu^15, Orn^21, Nle^27, Asp^28, Apa^30]hGHRH (1-30)NH2] (H-[NMeY][ξA]DAIFTQSYR[Orn]VL[Abu]QLSAR[Orn]LLQDI[Nle]DR[Ava]-NH2) | – | – | – | – | – | – | – | 0.68 | 1.03 | 0.33
– | – | 1.78 | CCCC[C@H](NC(=O)[C@@H](NC(=O)[C@H](CC(=O)O)NC(=O)[C@H](CCC(N)=O)NC(=O)[C@H](CC(C)C)NC(=O)[C@H](CC(C)C)NC(=O)[C@H](CCCN)NC(=O)[C@H](Cc1c[nH]cn1)NC(=O)[C@H](C)NC(=O)[C@H](CO)NC(=O)[C@H](CC(C)C)NC(=O)[C@H](CCC(N)=O)NC(=O)[C@H](CC)NC(=O)[C@H](CC(C)C)NC(=O)[C@@H](NC(=O)[C@H](CCCN)NC(=O)[C@H](Cc1c[nH]cn1)NC(=O)[C@H](Cc1ccc(O)cc1)NC(=O)[C@H](CO)NC(=O)[C@H](CCC(N)=O)NC(=O)[C@@H](NC(=O)[C@H](Cc1ccccc1)NC(=O)[C@@H](NC(=O)[C@H](C)NC(=O)[C@H](CC(=O)O)NC(=O)C(C)NC(=O)CCc1ccc(O)cc1)[C@@H](C)CC)[C@@H](C)O)C(C)C)[C@@H](C)CC)C(=O)N[C@@H](CC(=O)O)C(=O)N[C@@H](CCCNC(=N)N)C(=O)NC (stereo partly drawn) [Peptide P-27413, [Dat^1, Gln^8, His^11, Orn^12, Abu^15, His^20, Orn^21, Nle^27, Asp^28]hGHRH(1-29)NH—CH3] (Desaminotyrosyl-[ξA]DAIFTQSYH[Orn]VL[Abu]QLSAH[Orn]LLQDI[Nle]DR-NHMe) | – | – | – | – | – | – | – | 0.36 | 0.57 | –
